Laboratory results taken from patent US8546390B2, “6-(pyrrolopyridinyl) pyrimidin-2-ylamine derivatives and the use thereof for the treatment of cancer and AIDS” (Merck Patent GmbH, priority 2008, dated 2013).

Tested on: A2780 (ovary)
Test: Inhibition of the proliferation/vitality of tumour cells (Alamar Blue test)
Type: cell-based
Conditions: Homo sapiens, 96 h, A2780 ovary cell line, 4 days cultivation with test substance
Procedure: In the present experiment description, the inhibition of tumour cell proliferation/tumour cell vitality by active ingredients is described. The cells are sown in a suitable cell density in microtitre plates (96-well format) and the test substances are added in the form of a concentration series. After four further days of cultivation in serum-containing medium, the tumour cell proliferation/tumour cell vitality can be determined by means of an Alamar Blue test system.
The cells are cultivated in medium. At intervals of several days, the cells are detached from the culture dishes with the aid of trypsin solution and sown in suitable dilution in fresh medium. The cells are cultivated at 37° Celsius and 10% CO2.
A defined number of cells (for example 2000 cells) per culture/well in a volume of 180 μl of culture medium are sown in microtitre plates (96 well cell-culture plates) using a multichannel pipette. The cells are subsequently cultivated in a CO2 incubator (37° C. and 10% CO2).
The test substances are dissolved, for example, in DMSO and subsequently employed in corresponding concentration (if desired in a dilution series) in the cell culture medium. The dilution steps can be adapted depending on the efficiency of the active ingredients and the desired spread of the concentrations. Cell culture medium is added to the test substances in corresponding concentrations. The addition of the test substances to the cells can take place on the same day as the sowing of the cells. To this end, in each case 20 μl of substance solution from the predilution plate are added to the cultures/wells. The cells are cultivated for a further 4 days at 37° Celsius and 10% CO2.
In each case, 20 μl of Alamar Blue reagent are added per well, and the microtitre plates are incubated, for example, for a further seven hours in a CO2 incubator (at 37° C. and 10% CO2). The plates are measured in a reader with a fluorescence filter at a wavelength of 540 nm. The plates can be shaken gently immediately before the measurement.
The absorbance value of the medium control (no cells and test substances used) is subtracted from all other absorbance values. The controls (cells without test substance) are set equal to 100 percent, and all other absorbance values are set in relation thereto (for example in % of control): Calculation:
IC50 values (50% inhibition) are determined with the aid of statistics programs, such as, for example, RS1.

Row | IC50 | Compound
1 | 1000 to 10000 nM | CCCC1CCC(c2cc(-c3c[nH]c4ncccc34)nc(N)n2)CC1 (stereo not shown) [Compound A8]
2 | 10 to 1000 nM | CCc1cc(-c2c[nH]c3ncccc23)nc(N)n1 [Compound A5, 4-ethyl-6-(1H-pyrrolo[2,3-b]pyridin-3-yl)pyrimidin-2-ylamine]
3 | 10 to 1000 nM | Nc1nc(-c2ccccc2)cc(-c2c[nH]c3ncccc23)n1 [Compound A2, 4-Phenyl-6-(1H-pyrrolo[2,3-b]pyridin-3-yl)pyrimidin-2-ylamine]
4 | 1000 to 10000 nM | CCCCCc1cc(-c2c[nH]c3ncccc23)nc(N)n1 [Compound A6, 4-Pentyl-6-(1H-pyrrolo[2,3-b]pyridin-3-yl)pyrimidin-2-ylamine]
5 | 10 to 1000 nM | CCCc1cc(-c2c[nH]c3ncccc23)nc(N)n1 [Compound A3, 4-Propyl-6-(1H-pyrrolo[2,3-b]pyridin-3-yl)pyrimidin-2-ylamine]
6 | 10 to 1000 nM | CCCCc1cc(-c2c[nH]c3ncccc23)nc(N)n1 [Compound A1, 4-butyl-6-(1H-pyrrolo[2,3-b]pyridin-3-yl)pyrimidin-2-ylamine]

Target: T1, PDK1 (Homo sapiens, UniProt O15530)
T1 construct: His6 (N)
T1 sequence (O15530 51-556): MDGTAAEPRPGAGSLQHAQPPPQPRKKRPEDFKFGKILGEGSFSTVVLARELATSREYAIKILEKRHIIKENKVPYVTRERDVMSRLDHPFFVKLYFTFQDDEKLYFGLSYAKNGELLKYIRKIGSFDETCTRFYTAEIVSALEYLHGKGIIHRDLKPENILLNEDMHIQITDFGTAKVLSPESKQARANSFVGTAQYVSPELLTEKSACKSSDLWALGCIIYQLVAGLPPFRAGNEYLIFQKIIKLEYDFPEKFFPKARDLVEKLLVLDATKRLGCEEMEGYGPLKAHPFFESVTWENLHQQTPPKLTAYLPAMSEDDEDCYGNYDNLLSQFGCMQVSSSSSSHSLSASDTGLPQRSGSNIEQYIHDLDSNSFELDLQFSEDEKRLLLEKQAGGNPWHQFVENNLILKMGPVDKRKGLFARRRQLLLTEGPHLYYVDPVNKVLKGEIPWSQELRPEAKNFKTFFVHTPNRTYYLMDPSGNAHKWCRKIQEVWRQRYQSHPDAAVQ
Test: Test for the inhibition of PDK1 (flashplate, 33P-ATP)
Type: biochemical
Conditions: not given
Procedure: NO.: 1, (400 Nm), 4 μm ATP (with 0.2 μCi of ^33P-ATP/well) and the test substance in 50 μl of conventional experimental solution per well are incubated at 30° C. for 60 min. The test substances are employed in corresponding concentrations (if desired in a dilution series). The control is carried out without test substance. The reaction is stopped using standard methods and washed. The activity of the kinase is measured via the incorporated radioactivity in top count. In order to determine the non-specific kinase reaction (blank value), the experimental batches are carried out in the presence of 100 nM staurosporin.
The radioactivity (decompositions per minute) of the blank value (no use of test substance in the presence of staurosporin) is subtracted from all other radioactivity values. The controls (kinase activity without test substance) are set equal to 100 percent and all other radioactivity values (after subtracting the blank value) are expressed set in relation thereto (for example in % of the control).

Row | IC50 | Compound
7 | 10 to 1000 nM | CCc1cc(-c2c[nH]c3ncc(-c4cn[nH]c4)cc23)nc(N)n1 [Compound A60, 4-Ethyl-6-[5-(1H-pyrazol-4-yl)-1H-pyrrolo[2,3-b]pyridin-3-yl]pyrimidin-2-ylamine]

Same assay, conditions: His6-PDK1(Δ1-50) 3.4 nM; 30° C., 60 min; read-out: IC50 PDK1

Row | IC50 | Compound
8 | 10 to 1000 nM | CCc1cc(-c2c[nH]c3ncc(-c4cnn(CCOC)c4)cc23)nc(N)n1 [Compound A56, 4-Ethyl-6-{5-[1-(2-methoxyethyl)-1H-pyrazol-4-yl]-1H-pyrrolo[2,3-b]pyridin-3-yl}pyrimidin-2-ylamine]
9 | 10 to 1000 nM | CCc1cc(-c2c[nH]c3ncc(Br)cc23)nc(N)n1 [Compound A32]
10 | 10 to 1000 nM | CCc1cc(-c2c[nH]c3ncc(-c4cnn(CC(C)C)c4)cc23)nc(N)n1 [Compound A66, 4-Ethyl-6-[5-(1-isobulyl-1H-pyrazol-4-yl)-1H-pyrrolo[2,3-b]pyridin-3-yl]-pyrimidin-2-ylamine]
11 | 10 to 1000 nM | CCc1cc(-c2c[nH]c3ncc(-c4ccc(N)nc4)cc23)nc(N)n1 [Compound A48, 4-[5-(6-Aminopyridin-3-yl)-1H-pyrrolo-[2,3-b]pyridin-3-yl]-6-ethylpyrimidin-2-ylamine]
12 | 10 to 1000 nM | CCc1cc(-c2c[nH]c3ncc(-c4cnn(C)c4)cc23)nc(N)n1 [Compound A45, 4-ethyl-6-[5-(1-methyl-1H-pyrazol-4-yl)-1H-pyrrolo[2,3-b]pyridin-3-yl]pyrimidin-2-ylamine]
13 | 10 to 1000 nM | CCc1cc(-c2c[nH]c3ncc(-c4ccco4)cc23)nc(N)n1 [Compound A49, 4-Ethyl-6-(5-furan-2-yl-1H-pyrrolo[2,3-b]pyridin-3-yl)pyrimidin-2-ylamine]
14 | 10 to 1000 nM | NCCCc1cc(-c2c[nH]c3ncccc23)nc(N)n1 [Compound A16, 4-(3-Aminopropyl)-6-(1H-pyrrolo[2,3-b]pyridin-3-yl)pyrimidin-2-ylamine]
15 | 10 to 1000 nM | NCCCc1cc(-c2c[nH]c3ncc(-c4ccco4)cc23)nc(N)n1 [Compound A43, 4-(3-Aminopropyl)-6-(5-furan-2-yl-1H-pyrrolo[2,3-b]pyridin-3-yl)pyrimidin-2-ylamine]

Row | Compound | IC50
16 | 4-(3-aminopropyl)-6-[5-(1-methyl-1H-pyrazol-4-yl)-1H-pyrrolo[2,3-b]pyridin-3-yl]pyrimidin-2-ylamine [Compound A42] | 10 to 1000 nM
